In patent US12702149B2, “Resistant starch from natural sources and their preparation” (Arjuna Natural Private Limited, priority 2019, dated 2026):

System: carrageenan induced paw oedema
Assay: Anti-inflammatory study, carrageenan induced paw oedema model
Assay type: in vivo, Wistar rats
Details: oral, fibres 50 mg/Kg, Diclofenac 10 mg/Kg
Description: Anti-inflammatory study of turmeric dietary fibre was conducted in Wistar rats. Rats were divided into 5 groups and orally administered with study samples. • Group 1: consisted of control animals and were fed with vehicle (1% tween 80) • Group 2: animals which were given Diclofenac standard (10 mg Diclofenac/Kg body weight) • Group 3: Animals were given turmeric dietary fibre having 80% total dietary fibre (50 mg/Kg) • Group 4: Animals were given soluble dietary fibre from Guar beans (50 mg/Kg) • Group 5: Animals were given modified starch from tapioca (50 mg/Kg) Then after 30 mins, the treated rats were challenged with carrageenan (0.1 ml, 1% carrageenan suspension in 0.9% NaCl solution) by injecting to the animals in sub plantar region of the hind paw. Carrageenan is a chemical known to induce inflammation in rats. The paw volume was determined for all the animals at different time intervals (base line, 3 hr, 6 Hr) after carrageenan injection using digital plethysmometer and the percentage inhibition of inflammation was calculated using following formula: Percentage inhibition=(1−D/C)×100 • D-Represents the difference in paw volume from baseline in test/standard group. • C-Represents the difference in paw volume from baseline in the control group. A higher value of percentage inhibition indicated less paw volume in the animals as compared to control animals and more anti-inflammatory activity.

O=C(O)Cc1ccccc1Nc1c(Cl)cccc1Cl [Diclofenac]
Average percentage inhibition of inflammation (average of 3 Hr and 6 Hr): 39%
Percentage inhibition of inflammation 3 Hr (paw volume 3 hr after carrageenan): 46%
Percentage inhibition of inflammation 6 Hr (paw volume 6 hr after carrageenan): 32%
